Measurements taken from patent US10131652B2, “Pyrimidinyloxy benzene derivatives as herbicides” (E. I. DU PONT DE NEMOURS AND COMPANY, priority 2014, dated 2018).
Like-named read-outs stand apart in the source and are kept apart here.

How the values were obtained:
Assay in all cases: Test D pre-/postemergence plant response
Format in all cases: in vivo
[1] = tested on: morningglory (Ipomoea coccinea); conditions: Ipomoea; for pest or weed control at 8 g/ha: 8 g ai/ha; for pest or weed control at 16 g/ha: 16 g ai/ha; for pest or weed control at 31 g/ha: 31 g ai/ha; for pest or weed control at 62 g/ha: 62 g ai/ha
Excerpt: (§1) Seeds of plant species selected from blackgrass (Alopecurus myosuroides), Italian ryegrass (Lolium multiflorum), winter wheat (Triticum aestivum), galium (catchweed bedstraw, Galium aparine), corn (Zea mays), large (Lg) crabgrass (Digitaria sanguinalis), giant foxtail (Setaria faberii), johnsongrass (Sorghum halepense), lambsquarters (Chenopodium album), morningglory (Ipomoea coccinea), yellow nutsedge (Cyperus esculentus), pigweed (Amaranthus retroflexus), ragweed (common ragweed, Ambrosia elatior), soybean (Glycine max), bamyardgrass (Echinochloa crus-galli), oilseed rape (Brassica napus), waterhemp (common waterhemp, Amaranthus rudis), and velvetleaf (Abutilon theophrasti) were planted into a blend of loam soil and sand and treated preemergence with test chemicals formulated in a non-phytotoxic solvent mixture which included a surfactant. At the same time, plants selected from these crop and weed species and also kochia (Kochia scoparia), wild oat (Avena fatua), and chickweed (common chickweed, Stellaria media) were planted in pots containing Redi-Earth® planting medium (Scotts Company, 14111 Scottslawn Road, Marysville, Ohio 43041) comprising spaghnum peat moss, vermiculite, wetting agent and starter nutrients and treated with postemergence applications of test chemicals formulated in the same manner. Plants ranged in height from 2 to 18 cm (1- to 4-leaf stage) for postemergence treatments. Treated plants and controls were maintained in a greenhouse for 13 to 15 days, after which time all species were compared to controls and visually evaluated. Plant response ratings, summarized in Table D, are based on a scale of 0 to 100 where 0 is no effect and 100 is complete control. A dash (-) response means no test result.

[2] = tested on: oilseed rape (Brassica napus); conditions: Brassica napus; for plant injury at 8 g/ha: 8 g ai/ha; for plant injury at 16 g/ha: 16 g ai/ha; for plant injury at 31 g/ha: 31 g ai/ha; for plant injury at 62 g/ha: 62 g ai/ha
Excerpt: as §1

[3] = tested on: pigweed (Amaranthus retroflexus); conditions: Amaranthus retroflexus; for pest or weed control at 8 g/ha: 8 g ai/ha; for pest or weed control at 16 g/ha: 16 g ai/ha; for pest or weed control at 31 g/ha: 31 g ai/ha; for pest or weed control at 62 g/ha: 62 g ai/ha
Excerpt: as §1

[4] = tested on: ragweed (common ragweed, Ambrosia elatior); conditions: Ambrosia artemisiifolia; for pest or weed control at 8 g/ha: 8 g ai/ha; for pest or weed control at 16 g/ha: 16 g ai/ha; for pest or weed control at 31 g/ha: 31 g ai/ha; for pest or weed control at 62 g/ha: 62 g ai/ha
Excerpt: as §1

[5] = tested on: soybean (Glycine max); conditions: Glycine max; for plant injury at 8 g/ha: 8 g ai/ha; for plant injury at 16 g/ha: 16 g ai/ha; for plant injury at 31 g/ha: 31 g ai/ha; for plant injury at 62 g/ha: 62 g ai/ha
Excerpt: as §1

[6] = tested on: velvetleaf (Abutilon theophrasti); conditions: Abutilon theophrasti; for pest or weed control at 8 g/ha: 8 g ai/ha; for pest or weed control at 16 g/ha: 16 g ai/ha; for pest or weed control at 31 g/ha: 31 g ai/ha; for pest or weed control at 62 g/ha: 62 g ai/ha
Excerpt: as §1

[7] = tested on: waterhemp (common waterhemp, Amaranthus rudis); conditions: Amaranthus tuberculatus; for pest or weed control at 8 g/ha: 8 g ai/ha; for pest or weed control at 16 g/ha: 16 g ai/ha; for pest or weed control at 31 g/ha: 31 g ai/ha; for pest or weed control at 62 g/ha: 62 g ai/ha
Excerpt: as §1

[8] = tested on: winter wheat (Triticum aestivum); conditions: Triticum aestivum; for plant injury at 8 g/ha: 8 g ai/ha; for plant injury at 16 g/ha: 16 g ai/ha; for plant injury at 31 g/ha: 31 g ai/ha; for plant injury at 62 g/ha: 62 g ai/ha
Excerpt: as §1

[9] = tested on: yellow nutsedge (Cyperus esculentus); conditions: Cyperus; for pest or weed control at 8 g/ha: 8 g ai/ha; for pest or weed control at 16 g/ha: 16 g ai/ha; for pest or weed control at 31 g/ha: 31 g ai/ha; for pest or weed control at 62 g/ha: 62 g ai/ha
Excerpt: as §1

[10] = post-emergence, Postemergence, scale 0 to 100 (0 no effect, 100 complete control), read-out: Morningglory plant response rating
[11] = pre-emergence, Preemergence, scale 0 to 100 (0 no effect, 100 complete control), read-out: Plant response rating, Morningglory
[12] = post-emergence, Postemergence, scale 0 to 100 (0 no effect, 100 complete control), read-out: Oilseed Rape plant response rating
[13] = pre-emergence, Preemergence, scale 0 to 100 (0 no effect, 100 complete control), read-out: Plant response rating, Oilseed Rape
[14] = post-emergence, Postemergence, scale 0 to 100 (0 no effect, 100 complete control), read-out: Pigweed plant response rating
[15] = pre-emergence, Preemergence, scale 0 to 100 (0 no effect, 100 complete control), read-out: Plant response rating, Pigweed
[16] = post-emergence, Postemergence, scale 0 to 100 (0 no effect, 100 complete control), read-out: Ragweed plant response rating
[17] = pre-emergence, Preemergence, scale 0 to 100 (0 no effect, 100 complete control), read-out: Plant response rating, Ragweed
[18] = post-emergence, Postemergence, scale 0 to 100 (0 no effect, 100 complete control), read-out: Soybean plant response rating
[19] = pre-emergence, Preemergence, scale 0 to 100 (0 no effect, 100 complete control), read-out: Plant response rating, Soybean
[20] = post-emergence, Postemergence, scale 0 to 100 (0 no effect, 100 complete control), read-out: Velvetleaf plant response rating
[21] = pre-emergence, Preemergence, scale 0 to 100 (0 no effect, 100 complete control), read-out: Plant response rating, Velvetleaf
[22] = post-emergence, Postemergence, scale 0 to 100 (0 no effect, 100 complete control), read-out: Waterhemp plant response rating
[23] = pre-emergence, Preemergence, scale 0 to 100 (0 no effect, 100 complete control), read-out: Plant response rating, Waterhemp
[24] = post-emergence, Postemergence, scale 0 to 100 (0 no effect, 100 complete control), read-out: Wheat plant response rating
[25] = pre-emergence, Preemergence, scale 0 to 100 (0 no effect, 100 complete control), read-out: Plant response rating, Wheat
[26] = post-emergence, Postemergence, scale 0 to 100 (0 no effect, 100 complete control), read-out: Nutsedge, Yellow plant response rating
[27] = pre-emergence, Preemergence, scale 0 to 100 (0 no effect, 100 complete control), read-out: Plant response rating, Nutsedge, Yellow

FC(F)c1cc(-c2ccccc2Oc2ncc(Cl)cn2)no1 [Compound 35, 5-chloro-2-[2-[5-(difluoromethyl)-3-isoxazolyl]phenoxy]pyrimidine]
75%: pest or weed control at 62 g/ha ([4]; post-emergence, Postemergence, scale 0 to 100, 0 no effect, 100 complete control, read-out: Plant response rating, Ragweed) | pest or weed control at 31 g/ha [4, 17] | pest or weed control at 8 g/ha ([7]; post-emergence, Postemergence, read-out: Plant response rating (scale 0 to 100), Waterhemp) | pest or weed control at 16 g/ha [7, 22]
15%: plant injury at 62 g/ha [8, 25]
0%: pest or weed control at 8 g/ha [1, 11] | pest or weed control at 16 g/ha [1, 11] | plant injury at 8 g/ha ([8]; post-emergence, Postemergence, read-out: Plant response rating (scale 0 to 100), Wheat) | plant injury at 16 g/ha [8, 24] | plant injury at 8 g/ha [8, 25] | plant injury at 16 g/ha [8, 25] | pest or weed control at 8 g/ha [9, 27] | pest or weed control at 16 g/ha [9, 27]
45%: plant injury at 16 g/ha [2, 12] | pest or weed control at 16 g/ha [4, 16]
30%: plant injury at 16 g/ha [5, 19] | pest or weed control at 8 g/ha ([6]; post-emergence, Postemergence, read-out: Plant response rating (scale 0 to 100), Velvetleaf)
65%: plant injury at 16 g/ha [5, 18] | pest or weed control at 62 g/ha ([6]; post-emergence, Postemergence, scale 0 to 100, 0 no effect, 100 complete control, read-out: Plant response rating, Velvetleaf) | pest or weed control at 8 g/ha [6, 21]
95%: pest or weed control at 62 g/ha ([3]; post-emergence, Postemergence, scale 0 to 100, 0 no effect, 100 complete control, read-out: Plant response rating, Pigweed) | plant injury at 62 g/ha ([5]; post-emergence, Postemergence, scale 0 to 100, 0 no effect, 100 complete control, read-out: Plant response rating, Soybean) | pest or weed control at 31 g/ha [7, 22]
50%: pest or weed control at 16 g/ha [6, 20]
85%: pest or weed control at 31 g/ha [1, 10] | plant injury at 8 g/ha [2, 13] | pest or weed control at 31 g/ha [4, 16] | plant injury at 62 g/ha [5, 19] | pest or weed control at 16 g/ha [6, 21] | pest or weed control at 31 g/ha [6, 21]
25%: pest or weed control at 8 g/ha ([1]; post-emergence, Postemergence, read-out: Plant response rating (scale 0 to 100), Morningglory)
10%: plant injury at 8 g/ha [5, 19] | plant injury at 62 g/ha ([8]; post-emergence, Postemergence, scale 0 to 100, 0 no effect, 100 complete control, read-out: Plant response rating, Wheat)
100%: plant injury at 31 g/ha [2, 13] | plant injury at 62 g/ha [2, 13] | pest or weed control at 8 g/ha [3, 15] | pest or weed control at 16 g/ha [3, 15] | pest or weed control at 31 g/ha [3, 15] | pest or weed control at 62 g/ha [3, 15] | pest or weed control at 62 g/ha [6, 21] | pest or weed control at 8 g/ha [7, 23] | pest or weed control at 16 g/ha [7, 23] | pest or weed control at 31 g/ha [7, 23] | pest or weed control at 62 g/ha [7, 23]
55%: pest or weed control at 31 g/ha [1, 11] | pest or weed control at 8 g/ha [4, 17] | pest or weed control at 31 g/ha [6, 20]
5%: plant injury at 8 g/ha ([2]; post-emergence, Postemergence, read-out: Plant response rating (scale 0 to 100), Oilseed Rape) | plant injury at 31 g/ha [8, 24] | plant injury at 31 g/ha [8, 25] | pest or weed control at 8 g/ha ([9]; post-emergence, Postemergence, read-out: Plant response rating (scale 0 to 100), Nutsedge, Yellow) | pest or weed control at 16 g/ha [9, 26] | pest or weed control at 31 g/ha [9, 26] | pest or weed control at 62 g/ha ([9]; post-emergence, Postemergence, scale 0 to 100, 0 no effect, 100 complete control, read-out: Plant response rating, Nutsedge, Yellow) | pest or weed control at 31 g/ha [9, 27] | pest or weed control at 62 g/ha [9, 27]
40%: pest or weed control at 8 g/ha ([4]; post-emergence, Postemergence, read-out: Plant response rating (scale 0 to 100), Ragweed) | pest or weed control at 16 g/ha [4, 17] | plant injury at 8 g/ha ([5]; post-emergence, Postemergence, read-out: Plant response rating (scale 0 to 100), Soybean)
90%: pest or weed control at 62 g/ha [1, 11] | pest or weed control at 31 g/ha [3, 14]
60%: pest or weed control at 16 g/ha [1, 10] | plant injury at 31 g/ha [5, 19]
80%: plant injury at 31 g/ha [2, 12] | pest or weed control at 8 g/ha ([3]; post-emergence, Postemergence, read-out: Plant response rating (scale 0 to 100), Pigweed) | pest or weed control at 16 g/ha [3, 14] | pest or weed control at 62 g/ha [4, 17] | plant injury at 31 g/ha [5, 18]
98%: pest or weed control at 62 g/ha ([1]; post-emergence, Postemergence, scale 0 to 100, 0 no effect, 100 complete control, read-out: Plant response rating, Morningglory) | plant injury at 62 g/ha ([2]; post-emergence, Postemergence, scale 0 to 100, 0 no effect, 100 complete control, read-out: Plant response rating, Oilseed Rape) | plant injury at 16 g/ha [2, 13] | pest or weed control at 62 g/ha ([7]; post-emergence, Postemergence, scale 0 to 100, 0 no effect, 100 complete control, read-out: Plant response rating, Waterhemp)
